Measurements: publication PMC9137614, “TXH11106: A Third-Generation MreB Inhibitor with Enhanced Activity against a Broad Range of Gram-Negative Bacterial Pathogens” (Antibiotics, 2022)
Read-outs that look alike come from different tables or passages of the source.

Molecular target: T1, MreB (EcMreB) (Escherichia coli, UniProt P0A9X4)
T1 construct: N-terminal 8× His-tagged E. coli MreB (mreB from ATCC 25922), wild-type
Test: malachite green ATPase assay with purified EcMreB; Eadie–Hofstee kinetics
Format: biochemical

T1 sequence (P0A9X4 whole entry): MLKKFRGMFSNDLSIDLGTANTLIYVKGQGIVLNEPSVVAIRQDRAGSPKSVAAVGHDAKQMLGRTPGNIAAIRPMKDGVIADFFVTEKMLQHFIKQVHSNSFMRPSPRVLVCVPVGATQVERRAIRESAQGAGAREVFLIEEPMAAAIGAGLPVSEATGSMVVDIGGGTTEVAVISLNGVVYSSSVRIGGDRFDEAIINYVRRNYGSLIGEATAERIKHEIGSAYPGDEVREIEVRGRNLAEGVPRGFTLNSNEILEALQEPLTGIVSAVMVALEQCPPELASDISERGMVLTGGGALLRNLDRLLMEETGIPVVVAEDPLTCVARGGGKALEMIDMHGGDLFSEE

Q: How did the IC50 turn out when `N=C(N)SCc1ccc(Cl)c(Cl)c1` [A22] was run?
A: 447 ± 87 µM

Q: Which IC50 (read-out: IC50) does the source give for `NC1CCCc2c1[nH]c1ccc(Br)cc21` (stereo not drawn) [CBR-4830] here?
A: 49 ± 8 µM

Q: For `NC1CCCc2c1[nH]c1ccc(Cl)c(Cl)c21` (stereo not drawn) [compound 4, 5,6-dichloro-2,3,4,9-tetrahydro-1H-carbazol-1-amine], which IC50 (read-out: IC50) is on record?
A: 14 ± 2 µM
